According to a melting point compilation (Tetko et al.; mined from patent text by program, amines drawn as free bases though some values may be those of a salt):

First: CN(C)S(=O)(=O)Cc1ccccc1N
Second: CCOC(=O)Cn1nnnc1S(=O)(=O)Cc1ccccc1
The melting point of the first is lower: 70 to 78 °C for the first, 105 to 107 °C for the second.

Compared with `CCOC(=O)c1cc(-n2c(=O)[nH]c3c(c2=O)CSC3)ccc1Cl`, `CCOC(=O)C1(n2cc(Cl)cc2C(=O)C(Cl)(Cl)Cl)CC(=O)NC1=O` (centres undefined) is lower in melting point: 194 to 196 °C for the first, 182 to 185 °C for the second.

Compared with `CC(=O)OC1CCc2cc3ccccc3n2C1` (centres undefined), `O=C1c2ccccc2OC2CCCON12` (centres undefined) is higher in melting point: 90 to 95 °C for the first, 139 to 141 °C for the second.

First: CN1CCN(c2cccc3c2C[C@H](N(C)C(=O)c2ccc(C(F)(F)F)cc2)CC3)CC1
Second: COC(=O)N1CCC(C(C(N)=O)(c2ccc(F)cc2)c2ccc(F)cc2)CC1
The melting point of the first is lower: 123 to 125 °C for the first, 126 to 129 °C for the second.

First: CCN(Cc1ccccc1OCc1ccccc1)c1ccc(C(=O)O)cc1
Second: O=C(O)[C@@H]1Cc2ncn(Cc3ccccc3)c2CN1C(=O)c1ccccc1
The melting point of the first is lower: 165 °C for the first, 233 to 235 °C for the second.

Compared with `COC(=O)c1c(F)cc(OCCNC(=O)C2Cc3ccccc3N2S(=O)(=O)c2ccc(-c3ccc(F)cc3F)cc2)cc1F` (centres undefined), `CS(=O)(=O)c1cccc(Cc2cc3c(F)ccc(-c4cccc(C(=O)NCC(N)=O)c4)c3s2)c1` is higher in melting point: 69 to 77 °C for the first, 107 to 108 °C for the second.

Compared with `O=C1CC(=Cc2c[nH]c3ccccc23)C(=O)N1Cc1cc(C(F)(F)F)cc(C(F)(F)F)c1`, `O=C1Cc2ccccc2C(=O)N1Cc1ccccc1F` is higher in melting point: 68 to 69 °C for the first, 140 to 144 °C for the second.

First: Cc1ccc(NS(=O)(=O)c2cc(S(=O)(=O)Nc3ccc(C)cc3C)c3cc(O)ccc3c2)c(C)c1
Second: COc1ccc(S(=O)(=O)N2C(=O)C(N)(c3ccccc3Cl)c3cc(Cl)ccc32)c(N)c1 (centres undefined)
The melting point of the first is lower: 116 to 118 °C for the first, 160 to 166 °C for the second.

Compared with `CC1Cc2cccc(S(N)(=O)=O)c2OS1(=O)=O` (centres undefined), `CS(=O)(=O)OCCC1(CCOS(C)(=O)=O)c2ccccc2Oc2ccccc21` is lower in melting point: 185 to 186 °C for the first, 121 to 122 °C for the second.

Compared with `COc1cc2c(cc1OCc1ccccc1)CCN(C(=O)CC13CC4CC(CC(C4)C1)C3)C2`, `O=C(NC1CCN(CCc2ccccc2F)C1)C12CC3CC(CC(C3)C1)C2` (centres undefined) is lower in melting point: 133 to 135 °C for the first, 106 to 108 °C for the second.

First: CCOC(=O)C(=O)c1csc(NC(c2ccccc2F)c2ccccc2F)n1
Second: C=CCc1c(OC(C)=O)c2cccnc2n(-c2ccccc2)c1=O
The melting point of the first is lower: 122 to 124 °C for the first, 189 to 195 °C for the second.

First: CC1(C)OC(c2ccc(Cl)cc2Cl)C(Cn2cncn2)(c2ccc(Cl)cc2)O1 (centres undefined)
Second: S=c1[nH]c2ccc(Cl)cc2c2nc(-c3ccco3)nn12
The melting point of the first is lower: 141 to 142 °C for the first, 202 to 207 °C for the second.

First: Fc1cc(Cl)cc2cc(-c3ccccc3)[nH]c12
Second: Brc1cc(Cc2ccc3ccccc3c2)cc(Br)c1OCc1nnn[nH]1
The melting point of the first is lower: 153 to 155 °C for the first, 183 to 184 °C for the second.

First: COc1ccc(Cn2c(=O)c(C(=O)NC3CCCCC3)c(O)c3cc(Cl)cnc32)cc1
Second: COC(=O)c1ccc(Cc2cn(C)c3ccc(CCNC(=O)N(C)C)cc23)c(OC)c1
The melting point of the first is higher: 193 °C for the first, 122 to 124 °C for the second.

First: N#CC1(CCc2ccccc2)CCCCN1C(=O)c1ccccc1 (centres undefined)
Second: C=CCN1C(=O)C2=C(c3ccccc3)N(CC=C)C(=O)C2=C1c1ccccc1
The melting point of the first is lower: 65 to 67 °C for the first, 216 to 217 °C for the second.

First: CCOc1cc(CF)nc(N)n1
Second: CC(C)CN1CCC(CNC(=O)c2cc(Cl)c(N)[nH]c2=O)CC1
The melting point of the first is lower: 85 to 87 °C for the first, 128 to 133 °C for the second.

Compared with `FC(F)(F)C1(c2ccccc2)CCNCC1`, `Cc1c(OCC(F)(F)F)ccnc1CSc1nc2ccccc2n1NCCCO` is higher in melting point: 87.6 °C for the first, 113 to 114 °C for the second.

Compared with `O=C(O)c1ccc(C(=O)Nc2nnc(-c3cc(Cl)cc(Cl)c3O)s2)nc1`, `O=C(O)c1ccc(NC(=O)c2sc3c([N+](=O)[O-])c(O)c(O)cc3c2Cl)cc1` is higher in melting point: 267 °C for the first, 298 to 300 °C for the second.

First: COc1cc(OCCN2CCOCC2)c(C=CC(=O)c2ccc(C(N)=O)cc2)cc1-c1cccs1
Second: COc1cccc2c1nc(C(F)F)n2-c1nc(-c2ccc(N)nc2)nc(N2CCOCC2)n1
The melting point of the first is lower: 183 to 184 °C for the first, 259 to 261 °C for the second.

Compared with `CCCCCCCCCCN(OCc1ccccc1)C(=O)Nc1c(C(C)C)cccc1C(C)C`, `CCOC(=O)C(Cc1ccc(OCCN2COc3ccccc3C2=O)cc1)OCC` (centres undefined) is lower in melting point: 91 to 93 °C for the first, 76 to 78 °C for the second.

First: CCOC(CNN)OCC
Second: COc1ccc(Oc2c(C)cc(N)cc2C)cc1C(C)C
The melting point of the first is higher: 126 to 127 °C for the first, 95 to 100 °C for the second.

Compared with `O=S(=O)(c1ccccc1)n1c(Cc2cc3ccccc3n2S(=O)(=O)c2ccccc2)cc2ccccc21`, `O=C1NC(c2ccccc2)(c2ccccc2)C(=O)N1COP(=O)(OCc1ccccc1)OCc1ccccc1` is lower in melting point: 144 to 145 °C for the first, 119 to 120 °C for the second.

Compared with `IC12C3C4C5C3C1C5C42` (centres undefined), `CC(C)N1OCCC(=Cc2cc(C(C)(C)C)c(O)c(C(C)(C)C)c2)C1=O` is higher in melting point: 32 to 33 °C for the first, 181 to 183 °C for the second.

Compared with `Nc1c(-c2ccc(C(F)(F)F)cc2F)nnn1Cc1ccc(S(N)(=O)=O)cc1`, `CCc1cc(C#N)cc2c(NCc3ccc(OC)c(Cl)c3)c(C(=O)Oc3c(F)c(F)c(F)c(F)c3F)cnc12` is lower in melting point: 180 to 181 °C for the first, 169 to 170 °C for the second.

In the case of `Cc1cn2cccc(C=O)c2n1`, the melting point is reported as 123 to 125 °C.
